In brackets after ≈: the same amount, converted by molar mass. Blank lines part the entries; values can stand above or below the compound they belong to.
Tests used:
Assay in all cases: ≥ marks a high value that may be exact or a test limit, other limits are often not marked, values filed in µg/mL are converted to µM
[1] = test system: Acinetobacter baumannii ATCC 19606
Bacillus subtilis = test system: Bacillus subtilis
Escherichia coli = test system: Escherichia coli
Staphylococcus aureus = test system: Staphylococcus aureus
[2] = test system: Salmonella typhimurium KCTC 1926
[3] = test system: Pseudomonas aeruginosa KCTC 1637
[4] = test system: Bacillus subtilis KCTC 3068
[5] = test system: Escherichia coli KCTC 1682
[6] = test system: Staphylococcus aureus KCTC 1621
[7] = test system: Staphylococcus epidermidis KCTC 1917

Structure (SMILES): CC[C@H](C)[C@H](NC(=O)[C@@H]1CCCN1C(=O)[C@H](CC(C)C)NC(=O)[C@@H](N)Cc1ccccc1)C(=O)N[C@@H](C)C(=O)NCC(=O)N[C@@H](CCCCN)C(=O)N[C@@H](CC(C)C)C(=O)N[C@@H](CC(C)C)C(=O)N[C@@H](CO)C(=O)NCC(=O)N[C@@H](CC(C)C)C(=O)N[C@@H](CO)C(=O)NCC(=O)N[C@@H](CC(C)C)C(=O)N[C@@H](CC(C)C)C(=O)O [FLPIAGKLLSGLSGLL]
MIC [1]: > 62.5 µM

Structure (SMILES): CC[C@H](C)[C@H](NC(=O)[C@H](CCCN=C(N)N)NC(=O)CN)C(=O)N[C@@H](CCCCN)C(=O)N[C@@H](CCCN=C(N)N)C(=O)N[C@H](C(=O)N[C@@H](CCCN=C(N)N)C(=O)N[C@@H](CCCCN)C(=O)N[C@@H](CCCCN)C(=O)N[C@H](C(=O)N[C@@H](CCCCN)C(=O)N[C@@H](CCCCN)C(=O)N[C@@H](CC(C)C)C(=O)N[C@H](C(=O)N[C@@H](CCCCN)C(=O)N[C@@H](CCCCN)C(=O)N[C@@H](CC(C)C)C(=O)N[C@@H](CO)C(N)=O)[C@@H](C)CC)[C@@H](C)CC)[C@@H](C)CC [GRIKRIRKKIKKLIKKLS]
MIC [2]: 2 µM (≈ 4.41 µg/mL)
MIC [3]: 4 µM (≈ 8.82 µg/mL)
MIC [4]: 4 µM (≈ 8.82 µg/mL)
MIC [5]: 4 µM (≈ 8.82 µg/mL)
MIC [6]: 4 µM (≈ 8.82 µg/mL)
MIC [7]: 8 µM (≈ 17.6 µg/mL)

Structure (SMILES): CC(C)C[C@H](NC(=O)[C@H](CCCCN)NC(=O)[C@H](CCCCN)NC(=O)[C@H](Cc1c[nH]c2ccccc12)NC(=O)[C@H](CC(C)C)NC(=O)[C@H](CCCCN)NC(=O)[C@H](CCCCN)NC(=O)[C@H](Cc1c[nH]c2ccccc12)NC(=O)[C@H](CCCCN)NC(=O)[C@H](CCCCN)NC(=O)[C@H](CCCN=C(N)N)NC(=O)[C@H](Cc1c[nH]c2ccccc12)NC(=O)[C@H](CCCN=C(N)N)NC(=O)[C@H](CCCCN)NC(=O)[C@H](Cc1c[nH]c2ccccc12)NC(=O)[C@H](CCCN=C(N)N)NC(=O)CN)C(=O)N[C@@H](CO)C(N)=O [GRWKRWRKKWKKLWKKLS]
MIC [2]: 2 µM (≈ 5 µg/mL)
MIC [3]: 4 µM (≈ 9.99 µg/mL)
MIC [4]: 2 µM (≈ 5 µg/mL)
MIC [5]: 4 µM (≈ 9.99 µg/mL)
MIC [6]: 4 µM (≈ 9.99 µg/mL)
MIC [7]: 8 µM (≈ 20 µg/mL)

Structure (SMILES): CC[C@H](C)[C@H](N)C(=O)NCC(=O)N[C@@H](CCCCN)C(=O)N[C@@H](CCC(=O)O)C(=O)N[C@@H](Cc1ccccc1)C(=O)N[C@@H](CCCCN)C(=O)N[C@@H](CCCN=C(N)N)C(=O)N[C@H](C(=O)N[C@H](C(=O)N[C@@H](CCC(N)=O)C(=O)N[C@@H](CCCN=C(N)N)C(=O)N[C@H](C(=O)N[C@@H](CCCCN)C(=O)N[C@@H](CC(=O)O)C(=O)N[C@@H](Cc1ccccc1)C(=O)N[C@@H](CC(C)C)C(=O)N[C@@H](CCCN=C(N)N)C(=O)N[C@@H](CC(N)=O)C(=O)N[C@@H](CC(C)C)C(=O)O)[C@@H](C)CC)C(C)C)[C@@H](C)CC [IGKEFKRIVQRIKDFLRNL]
MIC [2]: 8 µM (≈ 19 µg/mL)
MIC [3]: 16 µM (≈ 38 µg/mL)
MIC [4]: 4 µM (≈ 9.5 µg/mL)
MIC [5]: 8 µM (≈ 19 µg/mL)
MIC [6]: 4 µM (≈ 9.5 µg/mL)
MIC [7]: 4 µM (≈ 9.5 µg/mL)

Structure (SMILES): CC[C@H](C)[C@H](N)C(=O)N[C@@H](CC(C)C)C(=O)NCC(=O)N[C@@H](CCCCN)C(=O)N[C@H](C(=O)N[C@@H](CC(C)C)C(=O)N[C@@H](CCC(=O)O)C(=O)NCC(=O)N[C@H](C(=O)N[C@@H](CCCCN)C(=O)N[C@@H](CO)C(=O)N[C@@H](CC(C)C)C(=O)N[C@@H](Cc1ccccc1)C(N)=O)[C@@H](C)CC)[C@@H](C)CC [ILGKILEGIKSLF]
MIC [2]: 16 µM (≈ 22.9 µg/mL)
MIC [3]: 16 µM (≈ 22.9 µg/mL)
MIC [5]: 16 µM (≈ 22.9 µg/mL)
MIC [6]: 4 µM (≈ 5.72 µg/mL)
MIC [7]: ≥ 32 µM

Structure (SMILES): CC[C@H](C)[C@H](N)C(=O)N[C@@H](Cc1c[nH]c2ccccc12)C(=O)N[C@@H](CC(N)=O)C(=O)N[C@@H](CCCCN)C(=O)N[C@H](C(=O)N[C@@H](C)C(=O)N[C@@H](CCCCN)C(=O)N[C@@H](CO)C(=O)N[C@H](C(=O)NCC(=O)N[C@@H](CCCCN)C(=O)N[C@H](C(=O)N[C@@H](CC(C)C)C(=O)N[C@@H](CCC(=O)O)C(=O)N[C@@H](CCCCN)C(=O)N[C@@H](C)C(=O)N[C@@H](CC(C)C)C(N)=O)C(C)C)[C@@H](C)CC)[C@@H](C)CC [IWNKIAKSIGKVLEKAL]
MIC (Bacillus subtilis): ≥ 35 µM
MIC (Escherichia coli): 15 µM (≈ 28.7 µg/mL)

Structure (SMILES): CC[C@H](C)[C@H](NC(=O)[C@H](CCCCN)NC(=O)[C@H](CCCCN)NC(=O)[C@H](CC(C)C)NC(=O)[C@@H](N)CCCCN)C(=O)N[C@@H](Cc1c[nH]c2ccccc12)C(=O)N[C@@H](Cc1c[nH]c2ccccc12)C(=O)N[C@H](C(=O)N[C@@H](CCCCN)C(=O)N[C@H](C(=O)N[C@@H](CCCCN)C(=O)N[C@@H](CCCCN)C(N)=O)C(C)C)[C@@H](C)CC [KLKKIWWIKVKK]
MIC [2]: 0.976 µM (≈ 1.56 µg/mL)
MIC [3]: 3.91 µM (≈ 6.25 µg/mL)
MIC [4]: 7.82 µM (≈ 12.5 µg/mL)
MIC [5]: 7.82 µM (≈ 12.5 µg/mL)
MIC [6]: 3.91 µM (≈ 6.25 µg/mL)
MIC [7]: 3.91 µM (≈ 6.25 µg/mL)

Structure (SMILES): CC(C)C[C@H](NC(=O)[C@H](CC(C)C)NC(=O)[C@H](CCCCN)NC(=O)[C@H](CC(C)C)NC(=O)[C@H](CC(C)C)NC(=O)[C@H](CCCCN)NC(=O)[C@H](CCCCN)NC(=O)[C@H](CC(C)C)NC(=O)[C@H](CC(C)C)NC(=O)[C@H](CCCCN)NC(=O)[C@H](CCCCN)NC(=O)[C@H](Cc1c[nH]c2ccccc12)NC(=O)[C@@H](N)CCCCN)C(N)=O [KWKKLLKKLLKLL]
MIC [2]: 8 µM (≈ 13.2 µg/mL)
MIC [3]: 8 µM (≈ 13.2 µg/mL)
MIC [4]: 4 µM (≈ 6.61 µg/mL)
MIC [5]: 8 µM (≈ 13.2 µg/mL)
MIC [6]: 8 µM (≈ 13.2 µg/mL)
MIC [7]: 4 µM (≈ 6.61 µg/mL)

Structure (SMILES): CC[C@H](C)[C@H](NC(=O)[C@H](CCCN=C(N)N)NC(=O)[C@H](CCCN=C(N)N)NC(=O)[C@H](CC(C)C)NC(=O)[C@@H](N)CCCN=C(N)N)C(=O)N[C@@H](Cc1c[nH]c2ccccc12)C(=O)N[C@@H](Cc1c[nH]c2ccccc12)C(=O)N[C@H](C(=O)N[C@@H](CCCN=C(N)N)C(=O)N[C@H](C(=O)N[C@@H](CCCN=C(N)N)C(=O)N[C@@H](CCCN=C(N)N)C(N)=O)C(C)C)[C@@H](C)CC [RLRRIWWIRVRR]
MIC [2]: 1.77 µM (≈ 3.13 µg/mL)
MIC [3]: 3.54 µM (≈ 6.25 µg/mL)
MIC [4]: 7.08 µM (≈ 12.5 µg/mL)
MIC [5]: 7.08 µM (≈ 12.5 µg/mL)
MIC [6]: 3.54 µM (≈ 6.25 µg/mL)
MIC [7]: 3.54 µM (≈ 6.25 µg/mL)

Structure (SMILES): CC[C@H](C)[C@H](NC(=O)[C@H](CCCN=C(N)N)NC(=O)[C@H](CCCN=C(N)N)NC(=O)[C@@H](NC(=O)[C@@H](NC(=O)[C@H](CCCN=C(N)N)NC(=O)[C@H](CCCCN)NC(=O)[C@@H](N)Cc1c[nH]c2ccccc12)[C@@H](C)CC)C(C)C)C(=O)N[C@@H](Cc1c[nH]c2ccccc12)C(=O)N[C@@H](CCCN=C(N)N)C(=O)N[C@@H](Cc1c[nH]c2ccccc12)C(=O)N[C@@H](CC(C)C)C(=O)N[C@@H](CCCN=C(N)N)C(N)=O [WKRIVRRIWRWLR]
MIC [2]: 4 µM (≈ 7.69 µg/mL)
MIC [3]: 16 µM (≈ 30.8 µg/mL)
MIC [4]: 2 µM (≈ 3.85 µg/mL)
MIC [5]: 8 µM (≈ 15.4 µg/mL)
MIC [6]: 2 µM (≈ 3.85 µg/mL)
MIC [7]: 8 µM (≈ 15.4 µg/mL)

The remaining lines, values ahead:

MIC (Bacillus subtilis): 3.12 µM (≈ 5.6 µg/mL)
MIC (Escherichia coli): 49.5 µM (≈ 88.9 µg/mL)
MIC (Staphylococcus aureus): 3.12 µM (≈ 5.6 µg/mL)
Structure (SMILES): CC[C@H](C)[C@H](NC(=O)[C@H](CC(C)C)NC(=O)[C@H](C)NC(=O)[C@@H]1CCCN1C(=O)[C@H](CC(C)C)NC(=O)CN)C(=O)N[C@@H](CO)C(=O)N[C@@H](Cc1c[nH]c2ccccc12)C(=O)N[C@H](C(=O)N[C@@H](CCCCN)C(=O)N[C@@H](CCCN=C(N)N)C(=O)N[C@@H](CCCCN)C(=O)N[C@@H](CCCN=C(N)N)C(=O)N[C@@H](CCC(N)=O)C(=O)N[C@@H](CCC(N)=O)C(N)=O)[C@@H](C)CC [GLPALISWIKRKRQQ]

MIC (Bacillus subtilis): 0.423 µM (≈ 0.65 µg/mL)
MIC (Escherichia coli): 27.1 µM (≈ 41.7 µg/mL)
MIC (Staphylococcus aureus): 0.845 µM (≈ 1.3 µg/mL)
Structure (SMILES): CC[C@H](C)[C@H](NC(=O)[C@H](CC(C)C)NC(=O)[C@H](C)NC(=O)[C@@H]1CCCN1C(=O)[C@H](CC(C)C)NC(=O)CN)C(=O)N[C@@H](CO)C(=O)N[C@@H](Cc1c[nH]c2ccccc12)C(=O)N[C@H](C(=O)N[C@@H](CCCCN)C(=O)N[C@@H](CCCN=C(N)N)C(=O)N[C@@H](CCCCN)C(=O)N[C@@H](CCCN=C(N)N)C(N)=O)[C@@H](C)CC [GLPALISWIKRKR]

MIC (Bacillus subtilis): 22.1 µM (≈ 39 µg/mL)
MIC (Escherichia coli): 176 µM (≈ 311 µg/mL)
MIC (Staphylococcus aureus): 8.26 µM (≈ 14.6 µg/mL)
Structure (SMILES): CC[C@H](C)[C@H](NC(=O)[C@H](Cc1c[nH]c2ccccc12)NC(=O)[C@H](CO)NC(=O)[C@H](CO)NC(=O)[C@H](CC(C)C)NC(=O)[C@H](C)NC(=O)[C@@H]1CCCN1C(=O)[C@H](CC(C)C)NC(=O)CN)C(=O)N[C@@H](CCCCN)C(=O)N[C@@H](CCCN=C(N)N)C(=O)N[C@@H](CCCCN)C(=O)N[C@@H](CCCN=C(N)N)C(=O)N[C@@H](CCC(N)=O)C(=O)N[C@@H](CCC(N)=O)C(N)=O [GLPALSSWIKRKRQQ]

MIC (Bacillus subtilis): 0.897 µM (≈ 1.6 µg/mL)
MIC (Escherichia coli): 3.5 µM (≈ 6.25 µg/mL)
MIC (Staphylococcus aureus): 1.74 µM (≈ 3.1 µg/mL)
Structure (SMILES): CC[C@H](C)[C@H](NC(=O)[C@H](CC(C)C)NC(=O)[C@H](C)NC(=O)[C@H](CO)NC(=O)[C@H](CC(C)C)NC(=O)CN)C(=O)N[C@@H](CO)C(=O)N[C@@H](Cc1c[nH]c2ccccc12)C(=O)N[C@H](C(=O)N[C@@H](CCCCN)C(=O)N[C@@H](CCCN=C(N)N)C(=O)N[C@@H](CCCCN)C(=O)N[C@@H](CCCN=C(N)N)C(=O)N[C@@H](CCC(N)=O)C(=O)N[C@@H](CCC(N)=O)C(N)=O)[C@@H](C)CC [GLSALISWIKRKRQQ]

From DBAASP
